According to patent US5789595A, “Tetrahydroisoquinoline derivative and medical preparation containing the same” (Terumo Kabushiki Kaisha, priority 1994, dated 1998):
Counter-ions that a name gives are not always drawn.

How the values were obtained:
Assay type in all cases: cell-based
human platelet [1] = test: ADP-induced aggregation of human platelets (platelet-rich plasma), inhibition; details: human PRP, 20 to 30×1e4 platelets/μl, 37° C., read-out: Inhibitory action for agglutination by ADP IC50
Procedure: Inhibity effects on human platelet of the invention derivatives to evaluate the activity for inhibiting aggregation induced by ADP (adenosine diphosphate), thrombin, and fibrinogen were measured in accordance with the procedure as described below. (1) Preparation of platelet-rich plasma, washed platelets, and α-chymotrypsin-treated platelets Human whole blood withdrawn from human elbow vein into 10% volume of 3.8% sodium citrate was centrifuged at 135×g (1100 rpm) for 10 minutes, and the supernatant was collected as platelet-rich plasma (PRP). The residue was further centrifuged at 1600×g (3000 rpm) for 10 minutes, and the supernatant was collected as platelet-poor plasma (PPP). PRP and PPP were used for the measurement of the aggregation induced by ADP. In the meanwhile, PRP was applied to Sepharose CL-2B column (manufacture by Pharmacia) equilibrated with HEPES buffer, pH 7.4 containing 0.5% BSA and 5.5 mM glucose, and the fractions eluted in the void volume were collected as platelet-suspension, and used for the measurement of the aggregation induced by thrombin. In addition, washed platelet were treated with α-chymotrypsin of the final concentration of 10 U/ml for 30 minutes at room temperature. Then, the protease reaction was stopped by the addition of trypsin-chymotrypsin inhibitor (0.5 mg/ml), and α-chymotrypsin-treated platelet-suspension was used for the aggregation induced by fibrinogen. (2) Measurement of ADP-induced aggregation PRP was diluted with PPP to adjust the number of platelets to 20 to 30×1e4/μl, and the aggregation induced by ADP was measured with aggligometer (HEMATRACER VI, manufactured by NBS). 0.2 ml of PRP was placed in the cubette of the aggligometer with 25 μl of the test solution or physiological saline (control), and was incubated at 37° C. for 5 minutes with stirring (1000 rpm). Then, 25 μl of ADP solution was added and the time course of the light transmittance was recorded. The transmittance of PRP and PPP were calibrated as 0 and 100% respectively, and the maximum transmittance after adding the agonist was taken for the maximum aggregation. The concentration of 50% inhibition (IC50) was calculated from the proportion of the maximum aggregation with test solution to physiological saline.

human platelet [2] = test: Thrombin-induced aggregation of human platelets (washed platelet suspension), inhibition; details: HEPES buffer pH 7.4, 2 mM CaCl2 and MgCl2, read-out: Inhibitory action for agglutination by thrombin IC50
Procedure: (§1) Inhibity effects on human platelet of the invention derivatives to evaluate the activity for inhibiting aggregation induced by ADP (adenosine diphosphate), thrombin, and fibrinogen were measured in accordance with the procedure as described below.
(§2) (1) Preparation of platelet-rich plasma, washed platelets, and α-chymotrypsin-treated platelets
(§3) Human whole blood withdrawn from human elbow vein into 10% volume of 3.8% sodium citrate was centrifuged at 135×g (1100 rpm) for 10 minutes, and the supernatant was collected as platelet-rich plasma (PRP). The residue was further centrifuged at 1600×g (3000 rpm) for 10 minutes, and the supernatant was collected as platelet-poor plasma (PPP). PRP and PPP were used for the measurement of the aggregation induced by ADP. In the meanwhile, PRP was applied to Sepharose CL-2B column (manufacture by Pharmacia) equilibrated with HEPES buffer, pH 7.4 containing 0.5% BSA and 5.5 mM glucose, and the fractions eluted in the void volume were collected as platelet-suspension, and used for the measurement of the aggregation induced by thrombin. In addition, washed platelet were treated with α-chymotrypsin of the final concentration of 10 U/ml for 30 minutes at room temperature. Then, the protease reaction was stopped by the addition of trypsin-chymotrypsin inhibitor (0.5 mg/ml), and α-chymotrypsin-treated platelet-suspension was used for the aggregation induced by fibrinogen.
(3) Measurement of thrombin-induced aggregation
The platelet-suspension was diluted with HEPES buffer, pH 7.4 to adjust the number of platelets to 20 to 30×1e4/μl, and calcium chloride and magnesium chloride were respectively added to 2 mM (final concentration). The aggregation induced by thrombin was measured with this platelet-suspension and HEPES buffer (contrast) by the same procedure as the measurement of the aggregation induced by the ADP. The concentration of 50% inhibition (IC50) was calculated from the proportion of the maximum aggregation with test solution to physiological saline.

human platelet [3] = test: Fibrinogen-induced aggregation of α-chymotrypsin-treated human platelets, inhibition; details: fibrinogen (0.4 mg/ml), HEPES buffer pH 7.4, PGE1 1 μM, read-out: Inhibitory action for agglutination by fibrinogen IC50
Procedure: as §1, §2
as §3, with “In addition, washed platelet were treated with α-chymotrypsin of the final concentration of 10 U/ml for 30 minutes at room temperature. Then, the protease reaction was stopped by the addition of trypsin-chymotrypsin inhibitor (0.5 mg/ml), and α-chymotrypsin-treated platelet-suspension was used for the aggregation induced by fibrinogen.” left out
α-chymotrypsin-treated platelet-suspension was diluted with HEPES buffer, pH 7.4 to adjust the number of platelets to 20 to 30×1e4/μl. […] The aggregation induced by fibrinogen (0.4 mg/ml) was measured with this platelet-suspension and the HEPES buffer (contrast). […]

Row | Structure (SMILES) | IC50 (human platelet [1]) [nM] | IC50 (human platelet [2]) [µM] | IC50 (human platelet [3]) [nM]
1 | O=C(O)CCN1CCc2ccc(NC(=O)COC3CCNCC3)cc2C1c1ccccc1 (centres unmarked) [Ex. 6, 2-(carbonylethyl)-1-phenyl-7-(piperidine-4-yloxyacetylamino)-1,2,3,4-tetrahydroisoquinoline] | 2900 | 1.9 | –
2 | CC1CN(CCC(=O)O)Cc2cc(NC(=O)COC3CCNCC3)ccc21 (centres unmarked) [Ex. 11, 2-(2-carboxyethyl)-4-methyl-7-(piperidine-4-yloxyacetylamino)-1,2,3,4-tetrahydroisoquinoline hydrochloride] | 150 | – | –
3 | O=C(O)CCCN1CCc2ccc(NC(=O)COC3CCNCC3)cc2C1 [Ex. 3, 7-(piperidine-4-yloxyacetylamino)-2-(3-carboxypropyl)-1,2,3,4-tetrahydroisoquinoline] | > 10000 | > 10 | –
4 | O=C(O)CN1CCc2ccc(NC(=O)COC3CCNCC3)cc2C1 [Ex. 1, 7-(piperidine-4-yloxyacetylamino)-2-carboxymethyl-1,2,3,4-tetrahydroisoquinoline] | 5000 | 4.8 | –
5 | CC(CC(=O)O)N1CCc2ccc(NC(=O)COC3CCNCC3)cc2C1 (centres unmarked) [Ex. 9, 7-(piperidine-4-yloxyacetylamino)-2-(2-carboxy-1-methylethyl)-1,2,3,4-tetrahydroisoquinoline] | 320 | – | –
6 | O=C(O)CCN1CCc2ccc(NC(=O)COC3CCNCC3)cc2C1 [Ex. 2, 7-(piperidine-4-yloxyacetylamino)-2-carboxyethyl-1,2,3,4-tetrahydroisoquinoline] | 97 | 0.066 | 38
7 | CC1CC(OCC(=O)Nc2ccc3c(c2)CN(CCC(=O)O)CC3)CC(C)N1 (centres unmarked) [Ex. 7, 7-(2,6-dimethylpiperidine-4-yloxyacetylamino)-2-(2-carboxyethyl)-1,2,3,4-tetrahydroisoquinoline] | > 10000 | – | –
8 | CC1c2cc(NC(=O)COC3CCNCC3)ccc2CCN1CCC(=O)O (centres unmarked) [Ex. 10, 2-(2-carboxyethyl)-1-methyl-7-(piperidine-4-yloxyacetylamino)-1,2,3,4-tetrahydroisoquinoline hydrochloride] | 380 | – | –
9 | CC1(C)Cc2ccc(NC(=O)COC3CCNCC3)cc2CN1CCC(=O)O [Ex. 12, 2-(2-carboxyethyl)-3,3-dimethyl-7-(piperidine-4-yloxyacetylamino)-1,2,3,4-tetrahydroisoquinoline hydrochloride] | 12000 | – | –
10 | CC1CNCCC1OCC(=O)Nc1ccc2c(c1)CN(CCC(=O)O)CC2 (centres unmarked) [Ex. 8, 7-(3-methylpiperidine-4-yloxyacetylamino)-2-(2-carboxyethyl)-1,2,3,4-tetrahydroisoquinoline] | 230 | – | –
11 | CN(C(=O)COC1CCNCC1)c1ccc2c(c1)CN(CCC(=O)O)CC2 [Ex. 5, 7-[(piperidine-4-yloxyacetyl)methylamino]-2-[2-(carboxy)ethyl]-1,2,3,4-tetrahydroisoquinoline] | 81000 | 43 | –
